Tests used:
[1] = Stability of suspension formulations in 0.5% MC 400 cP/0.2% Tween 80 (HPLC, PSD); assay type: physicochemical
Method: For stability and purity testing of Compound 1 a high-performance liquid chromatography (HPLC) method was developed. The HPLC method used for chemical stability and purity testing was as follows:
To prepare suspension formulations of Compound 1, about 0.5 mg, 5 mg and 10 mg of Compound 1 were weighted into separate vials and 1 mL 0.5% MC 400 cP/0.2% Tween 80 was added to each vial. The materials were mixed together by Vortex and stirred at room temperature overnight (24 hrs). The stability of the suspension formulations was measured by quantifying the purity of Compound 1 using high pressure liquid chromatography (HPLC). […]
To prepare a suspension formulation comprising jet-milled Compound 1, 15 mg of jet-milled Compound 1 was weighed into a glass vial and then 10 mL of vehicle (0.5% MC 400 cP/0.2% Tween 80) was added to disperse it to reach Compound 1 concentration of 1.5 mg/mL. The suspension was thoroughly dispersed by homogenization for ˜30 seconds. The stability of the suspension was evaluated by HPLC and particle size distribution (PSD), and the results are summarized in Table 7. Based on HPLC and PSD, the suspension formulation comprising jet-milled Compound 1 was stable at ambient condition for 28 days.

[2] = Phase 1 single/multiple ascending dose and food effect trial in healthy volunteers: pharmacokinetics (plasma, urine); assay type: in vivo, human
Source text: This is a three-part clinical trial to evaluate the safety, tolerability, PK, and food effect of Compound 1 in healthy volunteers aged 18 to 55 years inclusive. The clinical trial is comprised of the following 3 parts: • Part A is randomized, double-blinded and placebo-controlled. Part A is designed to investigate the safety and PK of single ascending doses of Compound 1. • Part B is randomized, double-blinded and placebo-controlled. Part B is designed to investigate the safety and PK of multiple ascending doses of Compound 1 (selected based on the results from Part A). • Part C is a randomized, open-label, crossover design to investigate the PK of a single dose of Compound 1 in the fasted and fed state. Objectives and Endpoints: Part A
(§1) Part C may commence once the safety and PK have been adequately evaluated in the last cohort of Part A. Up to 16 participants receive two doses of Compound 1, one dose after a minimum of 10 hours fasting and one after consumption of a high-fat, high calorie meal in a randomized crossover design, with a 7 day washout in between periods. Up to 3 additional days of washout may be added between fasted and fed dosing based on the observed half-life in Part A.
A validated bioanalytical method is utilized for the determination of plasma and urine concentrations of Compound 1. Plasma and urine concentrations are summarized by dose group/condition and timepoint using descriptive statistics. In addition to descriptive statistics specified in General Conditions above, plasma concentrations are also summarized using number and percentage of concentrations below the level of quantification (BLQ) and coefficient of variation (CV %).
Pharmacokinetic parameters are estimated from concentration-time data using standard non-compartmental methods. Urine PK parameters are estimated from urine concentration and urine volume data. PK parameters are summarized by dose group/condition using descriptive statistics. In addition to descriptive statistics specified in General Conditions above, PK parameters are summarized using CV %, geometric mean, and geometric coefficient of variation. PK parameters are assessed for linearity and dose proportionality using the power model where feasible. To test for a food effect in Part C, the geometric mean ratio (In transformed) of the test treatment (ie, fed condition) relative to the reference treatment (ie, fasted condition) are estimated with the 90% CIs calculated for Cmax and AUC0-inf. […]
as §1, with “Participants” for “Up to 16 participants”, “Up to 3 additional days of washout may be added between fasted and fed dosing based on the observed half-life in Part A.” left out

[3] = jet milled, 0.5% MC 400 cP/0.2% Tween 80, target 1.5 mg/mL, 1 day
[4] = jet milled, 0.5% MC 400 cP/0.2% Tween 80, target 1.5 mg/mL, 6 days
[5] = jet-milled, 0.5% MC 400 cP/0.2% Tween 80, target 1.5 mg/mL, RT, Initial
[6] = jet-milled, 0.5% MC 400 cP/0.2% Tween 80, target 1.5 mg/mL, RT, day 1
[7] = jet-milled, 0.5% MC 400 cP/0.2% Tween 80, target 1.5 mg/mL, RT, day 2
[8] = jet-milled, 0.5% MC 400 cP/0.2% Tween 80, target 1.5 mg/mL, RT, day 3
[9] = jet-milled, 0.5% MC 400 cP/0.2% Tween 80, target 1.5 mg/mL, RT, day 6
[10] = jet-milled, 0.5% MC 400 cP/0.2% Tween 80, target 1.5 mg/mL, RT, day 7
[11] = jet-milled, 0.5% MC 400 cP/0.2% Tween 80, target 1.5 mg/mL, RT, day 14
[12] = jet-milled, 0.5% MC 400 cP/0.2% Tween 80, target 1.5 mg/mL, RT, day 21
[13] = jet-milled, 0.5% MC 400 cP/0.2% Tween 80, target 1.5 mg/mL, RT, day 28
[14] = un-milled, 0.5% MC 400 cP/0.2% Tween 80, target 0.5 mg/mL, 1 hr
[15] = un-milled, 0.5% MC 400 cP/0.2% Tween 80, target 0.5 mg/mL, 4 hrs
[16] = un-milled, 0.5% MC 400 cP/0.2% Tween 80, target 0.5 mg/mL, 7 days
[17] = un-milled, 0.5% MC 400 cP/0.2% Tween 80, target 5 mg/mL, 4 hrs
[18] = un-milled, 0.5% MC 400 cP/0.2% Tween 80, target 5 mg/mL, 7 days
[19] = un-milled, 0.5% MC 400 cP/0.2% Tween 80, target 10 mg/mL, 1 hr
[20] = un-milled, 0.5% MC 400 cP/0.2% Tween 80, target 10 mg/mL, 4 hrs
[21] = un-milled, 0.5% MC 400 cP/0.2% Tween 80, target 10 mg/mL, 7 days

appearance of suspensions ([1]; 0.5, 5 and 10 mg/mL in 0.5% MC 400 cP/0.2% Tween 80, room temperature): homogenous suspensions | Concentration [1, 3]: 1440 µg/mL | Purity [1, 3]: 99.4% | Concentration [1, 4]: 1430 µg/mL | Purity [1, 4]: 99.5% | Appearance [1, 5]: Homogeneous | Conc. [1, 5]: 1610 µg/mL | Purity [1, 5]: 99.43% | Appearance [1, 6]: Homogeneous | Conc. [1, 6]: 1440 µg/mL | Purity [1, 6]: 99.44% | Appearance [1, 7]: Homogeneous | Conc. [1, 7]: 1380 µg/mL | Purity [1, 7]: 99.52% | Appearance [1, 8]: Homogeneous | Conc. [1, 8]: 1580 µg/mL | Purity [1, 8]: 99.49% | Appearance [1, 9]: Homogeneous | Conc. [1, 9]: 1430 µg/mL | Purity [1, 9]: 99.51% | Appearance [1, 10]: Homogeneous | Conc. [1, 10]: 1610 µg/mL | Purity [1, 10]: 99.55% | Appearance [1, 11]: Homogeneous | Conc. [1, 11]: 1610 µg/mL | Purity [1, 11]: 99.36% | Appearance [1, 12]: Homogeneous | Conc. [1, 12]: 1560 µg/mL | PSD (D90) [1, 12]: 6.97 um | Purity [1, 12]: 99.58% | Appearance [1, 13]: Homogeneous | Conc. [1, 13]: 1640 µg/mL | PSD (D90) [1, 13]: 6.80 um | Purity [1, 13]: 98.96% | stable at ambient condition (HPLC and PSD) ([1]; suspension of jet-milled Compound 1, 1.5 mg/mL, 0.5% MC 400 cP/0.2% Tween 80): 28 days | Concentration [1, 14]: 580 µg/mL | Purity [1, 14]: 97.46% | Concentration [1, 15]: 450 µg/mL | Purity [1, 15]: 96.65% | Concentration [1, 16]: 490 µg/mL | Purity [1, 16]: 97.85% | Purity ([1]; un-milled, 0.5% MC 400 cP/0.2% Tween 80, target 5 mg/mL, 1 hr): 97.60% | Concentration [1, 17]: 4720 µg/mL | Purity [1, 17]: 97.84% | Concentration [1, 18]: 5060 µg/mL | Purity [1, 18]: 96.95% | Concentration [1, 19]: 9690 µg/mL | Purity [1, 19]: 96.86% | Concentration [1, 20]: 9790 µg/mL | Purity [1, 20]: 97.12% | Concentration [1, 21]: 9720 µg/mL | Purity [1, 21]: 96.71% | time to maximal concentrations ([2]; healthy volunteers, oral capsules, fasted, preliminary data): 2 to 3 h | exposure versus dose level ([2]; healthy volunteers, preliminary data): increase proportionate to dose level | half-life ([2]; human, plasma, oral, average across groups, healthy volunteers, preliminary data, read-out: Terminal elimination half-life (converted)): 114 h | time to 90% of steady-state ([2]; once daily dosing): approximately 2 weeks
Compound: CCOC(F)(F)c1nnc2cnc(-c3cnc(OCC(F)(F)F)c(F)c3)cn12 [Compound 1, 3-(ethoxydifluoromethyl)-6-(5-fluoro-6-(2,2,2-trifluoroethoxy)pyridin-3-yl)-[1,2,4]triazolo[4,3-a]pyrazine]
